Entries after “also recorded” stand apart in the source; their conditions may differ.
Legend:
[1] = molecular target: T1, Flag-Tat (Human immunodeficiency virus type 1 (HXB3 ISOLATE), UniProt P69698); assay: Degradation assay: Flag-Tat in HEK293T cells, western blot; type: cell-based, HIV; conditions: for effect of chloroquine or NH4Cl on compound induced Flag-Tat degradation: Chloroquine 100 μM or NH4Cl 50 mM, 8 hrs; for Flag-Tat degradation / steady state: western blot; for effect of Lenalidomide on compound induced Flag-Tat degradation: Lenalidomide 40 μM, 4 hrs; for effect of MG132 on compound induced Flag-Tat degradation: MG132 20 μM, 17 hrs
T1 construct: Tat 86 aa likely (9 lysines)
T1 sequence (P69698 whole entry): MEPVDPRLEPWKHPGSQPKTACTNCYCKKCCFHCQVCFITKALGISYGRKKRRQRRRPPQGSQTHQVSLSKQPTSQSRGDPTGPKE
Description: Next, the effect of the three leads on the alteration of Tat steady state levels was assessed. Tat expression from an integrated provirus, or from HIV acute infection is generally too low to be detected by western blot. Furthermore, antibodies against Tat are known for their lack of avidity. Tat degradation was thus assessed upon transfection. Flag-Tat or Flag-GFP were individually transfected into HEK293T and 24 hrs later, TT-44856, TT-44863 or TT-44881 were added to the culture, followed by Western blot 24 hrs later (dubbed “degradation assay”) (FIG. 5A). […] These cells were treated with TNFα (previously determined not be degraded by the three leads in FIG. 2D) in the presence of TT-44856, TT-44863 or TT-44881, followed by western blot with an anti-Flag antibody 17 hrs later. […] Finally, the leads' impact on recombinant Tat protein in HEK293T cells was assessed (FIG. 5D). HEK293T cells were incubated with recombinant Tat for 4 hrs to allow Tat internalization, followed by several thorough washes to remove unincorporated Tat. Cells were then incubated with all three leads (or Triptolide) for an additional 2 hrs. Cells were lysed and analyzed by western blot with an anti-Tat serum.
Degradation of Tat has been reported in the literature in multiple ways, including the lysosomal pathway^23, the ubiquitin-independent 20S proteasomal pathway (due to its unfolded structure)^24,25, and the ubiquitin-dependent 26S proteasomal pathway^26. It was first assessed whether Tat was targeted to the lysosomal pathway by the lead compounds. HEK293T cells were transfected with Flag-Tat for 24 hrs, incubated with the compounds for an additional 24 hrs, then treated for 8 hrs with either 100 μM chloroquine or 50 mM NH4Cl, both known to inhibit lysosomal hydrolases by reducing acidification. […] Both the 20S and the 26S proteasomal pathways were next investigated using MG132, an inhibitor of the catalytic […] of 20S present in both pathways^27. The degradation assay was carried out as above, but compounds were simultaneously incubated with MG132 20 μM or DMSO for 17 hrs followed by western blot. In the presence of MG132, Tat degradation was rescued, but the rescue was higher in the presence of the lead compounds (FIG. 6B).
Protein ubiquitination occurs by sequential recruitment of ubiquitin-activating enzyme E1, ubiquitin-conjugating enzyme E2, and ubiquitin ligase E3 (using ubiquitin, substrate protein, and ATP). The selectivity in protein ubiquitination is conferred by E3 ubiquitin ligases that recognize the substrate proteins^29 and the human genome contains more than 600 E3 ubiquitin ligases^29. To determine whether the small molecule leads trigger the 20S or the 26S proteasomal pathways, the Tat degradation assay was performed in the presence of commercially available E3 ligase inhibitors, including Lenalidomide a E3 ubiquitin ligase Cereblon inhibitor. Cereblon has not been previously reported to ubiquitinate Tat. The degradation assays were performed as above with Lenalidomide (40 μM) or DMSO incubation for 4 hrs in the presence of the lead molecules (FIG. 7A). […] To confirm the engagement of Cereblon in the mechanism of action of the lead compounds, shRNAs were used to stably knock down Cerebelon, or CD8 control, in HEK293T cells, and the degradation assay for TT-44856 was performed.
The involvement of the ubiquitous VHL E3 ligase in the activity of TT-44881 inducing Tat degradation was also investigated. HEK293T cells overexpressing Tat protein and VHL siRNAs (or si control) were treated with either TT-44881 (60 μM) and DMSO or TT-44881 with a VHL PROTAC (CM11, 500 nM) for 24 hours. siRNAs and PROTACs were used together to maximize the depletion of both VHL isoforms (30 and 19 kDa).

[2] = molecular target: Flag-Tat and GFP (Human immunodeficiency virus type 1 (HXB3 ISOLATE), UniProt P69698); assay: J-Lat A2 cells stimulated with TNF-α, western blot of Flag-Tat and GFP; type: cell-based, HIV; conditions: TNF-α 20 ng/mL, 17 hours
Flag-Tat and GFP, sequence (P69698 whole entry): as above
Description: FIG. 5. […] Triptolide: 1 nM, TT-44856 and TT-44863: 40 μM, TT-44881: 60 μM. […] C. Impact of the lead hits on J-Lat A2 cells upon 17 hours stimulation with TNF-α (20 ng/mL). EPL: 10 μM, Triptolide (TRP): 1 nM, TT-44856 and TT-44863: 40 μM, TT-44881: 60 μM. […] Triptolide: 1 nM, TT-44856 and TT-44863: 40 μM, TT-44881: 60 μM.
Next, the effect of the three leads on the alteration of Tat steady state levels was assessed. Tat expression from an integrated provirus, or from HIV acute infection is generally too low to be detected by western blot. Furthermore, antibodies against Tat are known for their lack of avidity. Tat degradation was thus assessed upon transfection. Flag-Tat or Flag-GFP were individually transfected into HEK293T and 24 hrs later, TT-44856, TT-44863 or TT-44881 were added to the culture, followed by Western blot 24 hrs later (dubbed “degradation assay”) (FIG. 5A). […] Finally, the leads' impact on recombinant Tat protein in HEK293T cells was assessed (FIG. 5D). HEK293T cells were incubated with recombinant Tat for 4 hrs to allow Tat internalization, followed by several thorough washes to remove unincorporated Tat. Cells were then incubated with all three leads (or Triptolide) for an additional 2 hrs. Cells were lysed and analyzed by western blot with an anti-Tat serum.

[3] = system: PL11 cells; assay: Tat independent transactivation counter-screen with TNFα, PL11 cells; type: cell-based; conditions: PL11 cells activated with TNFα
Excerpt: Tat is a 14 kDa protein that is synthesized from an mRNA joined from 2 coding exons (FIG. 1B). The first exon encodes amino acids 1-72 and (in most strains of HIV), the second exon encodes amino acids 73-101. An N-terminal 86-amino acid form of Tat produced in a few laboratory-passaged virus strains is frequently used to study Tat. The classic cell-based Tat transactivation assay of the HIV LTR driving luciferase was optimized as a reporter gene for HTS9 (FIG. 2A). The assay concept is exceptionally robust, includes all the cellular components needed for transcriptional activation, and is very well-suited for an HTS for Tat antagonists. Compared with alternative approaches, this classic assay consistently outperformed the others. […] LTR activation is triggered by transfection of a plasmid expressing HIV-1HXB3 Tat (101 a.a.) driven by the phosphoglycerate (PGK) promoter. The assay called “Tat-TAR assay” was validated, and found robust and very well suited for an HTS platform, with a signal to background ratio of 407:1, a signal to noise ratio of 10:1, and a Z′=0.67. The cytotoxicity screen was performed in parallel (Cell-Titer-Glo, Promega), showing a signal to background ratio 898:1, signal to noise ratio 21:1 and a Z′=0.86. […] These hits were counter-screened in a Tat independent transactivation assay using TNFα to activate PL11 cells, resulting in the selection of 30 hits.

Row | SMILES | effect of chloroquine or NH4Cl on compound induced Flag-Tat degradation ([1]; n=1) | Flag-Tat degradation / steady state ([1]; HEK293T) | effect of Lenalidomide on compound induced Flag-Tat degradation [1] | effect of MG132 on compound induced Flag-Tat degradation [1] | Flag-Tat degradation upon Cereblon knockdown ([1]; shRNA Cereblon, HEK293T, TT-44856 40 μM, n=1) | Flag-Tat and GFP levels in J-Lat A2 cells [2] | Tat specificity in TNFα counter-screen [3] | Tat degradation upon VHL depletion ([1]; VHL siRNA and VHL PROTAC CM11 500 nM, 24 hours, TT-44881 60 μM)
1 | CC(C(=O)NCCCn1ccnc1)(c1ccccc1)c1ccccc1 [TT-44856] | do not prevent lead hits induced Flag-Tat degradation | Tat protein degradation was observed | prevents Tat compounds induced Flag-Tat degradation | prevents lead hits induced Flag-Tat degradation | no longer engaging Flag-Tat for degradation; also recorded: diminishes TT-44856 induced Flag-Tat degradation | strongly reduced | Tat specific | –
2 | COCCOc1ccc(C(F)(F)F)cc1NC(=O)Cn1cc(C(F)(F)F)cc(Cl)c1=O [TT-44863] | do not prevent lead hits induced Flag-Tat degradation | Tat protein degradation was observed | prevents Tat compounds induced Flag-Tat degradation | prevents lead hits induced Flag-Tat degradation | – | strongly reduced | Tat specific | –
3 | O=C(CCCCN1CCCC1=O)c1nn(-c2ccccc2)c2c1CCC2 [TT-44881] | do not prevent lead hits induced Flag-Tat degradation | Tat protein degradation was observed | prevents Tat compounds induced Flag-Tat degradation | prevents lead hits induced Flag-Tat degradation | – | strongly reduced | Tat specific | no longer depleted

Reference: US20260355184A1, “SMALL MOLECULE DEGRADERS OF HIV-1 TAT PROTEIN” (priority 2022, published 2026)
